The test system of test [1] is HCT116. The test can be described thus: AC50 cell viability (CellTiter-Glo); higher = less potent. Particulars: 48 h.
Test [2] relates to HCT116. The experiment in a line: efficacy (fitted maximal change in viability relative to DMSO control); higher = less cytotoxic (negative = loss of viability). The note with it: 48 h.

Each structure is given as a SMILES string.
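Wherever AC50 cell viability (CellTiter-Glo) is given: HCT116 colorectal carcinoma cells screened at five concentrations per compound, luminescent viability scaled between DMSO wells and empty wells on each plate, curves fitted per compound.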
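Wherever efficacy (fitted maximal change in viability relative to DMSO control) is given: Luminescence-based viability readout, five doses per compound, normalized against on-plate DMSO and empty-well controls, followed by dose-response curve fitting for every drug.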

With `Cc1c(-c2ccc(-c3ccccc3F)cc2)nc2ccc(F)cc2c1C(=O)O` [Brequinar], the AC50 cell viability in test [1] was 0.209 µM. Further, in test [2], the efficacy is -62.1%.

For `COc1cc(OC)c(/C=C/[S+](=O)([O-])Cc2ccc(OC)c(OP(=O)(O)O)c2)c(OC)c1` [Briciclib], the AC50 cell viability in test [1] was found to be 0.0468 µM. In addition, the efficacy in test [2] is -61.6%.

In the case of `COc1cc(N2CCC(N3CCN(C)CC3)CC2)ccc1Nc1ncc(Cl)c(Nc2ccccc2P(C)(C)=O)n1` [Brigatinib], in test [1], the AC50 cell viability was determined as 0.525 µM. Besides, the efficacy in test [2] is -75.3%.

On to `Cc1ccc(Sc2ccccc2N2CCNCC2)c(C)c1` [Brintellix], for which, in test [1], the AC50 cell viability came out at 11.8 µM. The efficacy in test [2] was -92.6%.

For the molecule `Cc1cc2c(F)c(Oc3ncnn4cc(OC[C@@H](C)O)c(C)c34)ccc2[nH]1` [Brivanib], the AC50 cell viability in test [1] was 9.34 µM. In addition, the efficacy in test [2] is -80.3%.

`COC(=O)[C@@]12OC[C@]34[C@H]([C@@H](O)[C@@H]1O)[C@@]1(C)CC(=O)C(O)=C(C)[C@@H]1C[C@H]3OC(=O)[C@H](OC(=O)/C=C(\C)C(C)C)[C@@H]24` [Bruceantin] showed an AC50 cell viability in test [1] of 0.00833 µM. For the same molecule, in test [2], the efficacy is -71.9%.

In test [1], `CCCC1OC2C[C@H]3[C@@H]4CCC5=CC(=O)C=C[C@]5(C)[C@H]4C(O)C[C@]3(C)[C@]2(C(=O)CO)O1` (stereo not given in full) [Budesonide] registered an AC50 cell viability of 18.6 µM. Besides, the efficacy in test [2] is -52.3%.

With `Clc1ccc(CCC(Cn2ccnc2)Sc2c(Cl)cccc2Cl)cc1` (stereo not given) [Butoconazole nitrate], in test [1], the AC50 cell viability is 20.9 µM. In addition, the efficacy in test [2] was -51.6%.

In test [1], `COc1ccc([S+](=O)([O-])Nc2cc(-c3c(O)ccc4ccccc34)c(O)c3ccccc23)cc1` [C-188-9] yielded an AC50 cell viability of 26.3 µM. Also, the efficacy in test [2] was -95.1%.

Turning to `CCCNC(=O)[C@H]1O[C@@H]1C(=O)N[C@H](C(=O)N1CCC[C@H]1C(=O)OC)C(C)CC` (stereo not given in full) [CA-074 Me], the AC50 cell viability in test [1] came out at 18.6 µM. Moreover, the efficacy in test [2] was -88.8%.

Take `OCCNC1CCCc2c1[nH]c1ccc(-c3ccccc3)cc21` (stereo not given) [CASIN]: the AC50 cell viability in test [1] worked out at 8.33 µM. For the same molecule, the efficacy in test [2] is -95.3%.

In the case of `Cc1cc2c(C(N)=O)cccc2n1-c1nc2c(c(NCc3ccccc3)n1)COCC2` [CB-5083], in test [1], the AC50 cell viability was 0.833 µM. Further, the efficacy in test [2] is -88.7%.

The molecule `CC(=O)c1ccc2c(c1)c1cc(C(C)=O)ccc1n2CCNC(C)C` [CBL-0137] showed an AC50 cell viability in test [1] of 0.417 µM. Further, in test [2], the efficacy is -69.6%.

As to `CCN1C(=O)C\N=C/2N\C=C(/N=C12)C3=C(C)N=C(C=C3)C4=NN=C[NH]4` [CC-115], the AC50 cell viability in test [1] stood at 7.42 µM. Besides, the efficacy in test [2] was -71%.

For the molecule `CO[C@H]1CC[C@H](N2C(=O)CNc3ncc(-c4ccc(C(C)(C)O)nc4)nc32)CC1` [CC-223], the AC50 cell viability in test [1] amounted to 9.34 µM. Moreover, the efficacy in test [2] is -85.5%.

`c1cc(OCCN2CCCCC2)cc(-c2n[nH]c3ccc(-c4nc[nH]n4)cc23)c1` [CC-401]: the AC50 cell viability in test [1] worked out at 14.8 µM. Besides, the efficacy in test [2] was -70.1%.

Take `Cc1ccc(NC(=O)NCc2ccc3c(c2)CN(C2CCC(=O)NC2=O)C3=O)cc1Cl` (stereo not given) [CC-885]: in test [1], the AC50 cell viability was 0.0934 µM. For the same molecule, the efficacy in test [2] is -42.4%.

For `COC1CC(C(=O)c2ccc3c(N)ncc(-c4ccc(-c5cnn(C)c5)cc4)c3n2)C1` (stereo not given) [CDK8i-51], the AC50 cell viability in test [1] was determined as 5.25 µM. For the same molecule, the efficacy in test [2] was -34.9%.

The molecule `Cc1ccc(Nc2cc(-c3cccc(N4C(=O)c5ccccc5C4=O)c3)ncn2)cc1N[S+](C)(=O)[O-]` [CDK9 Inhibitor] yielded an AC50 cell viability in test [1] of 20.9 µM. The efficacy in test [2] was -73.6%.

Turning to `COc1cc2c(cc1OC(C)C)[C@H](c1ccc(Cl)cc1)N(c1ccc(N(C)C[C@H]3CC[C@H](N4CCN(C)C(=O)C4)CC3)cc1)C(=O)C2` [CGM-097], in test [1], the AC50 cell viability was determined as 14.8 µM. For the same molecule, in test [2], the efficacy is -123%.

In turn, `ClC1=CC\2=C(NC(=O)\C(=C2N[C@@H]3CN4CCC3CC4)C5=NC6=C([NH]5)C=CC=C6)C=C1` [CHIR-124] registered an AC50 cell viability in test [1] of 0.833 µM. Also, in test [2], the efficacy was -80.9%.

In test [1], `Cn1c(Nc2ccc(C(F)(F)F)cc2)nc2cc(Oc3ccnc(-c4nc(C(F)(F)F)c[nH]4)c3)ccc21` [CHIR-265] came in with an AC50 cell viability of 5.25 µM. For the same molecule, the efficacy in test [2] was -108%.

`CC(=O)Nc1cc(Oc2ccc3c(nc(Nc4ccc(F)cc4F)n3C)c2C)ccn1` [CHZ868] gave an AC50 cell viability in test [1] of 0.833 µM. In addition, the efficacy in test [2] is -67.4%.

In test [1], `OC(=O)/C1=C/CCN(CCOC(C2=CC=C(C=C2)C(F)(F)F)C3=CC=C(C=C3)C(F)(F)F)C1` [CI-966] came in with an AC50 cell viability of 18.6 µM. The efficacy in test [2] is -37.1%.

Take `CC(C)n1cnc2c(NCCCCCCNC(=O)OC(C)(C)C)nc(NCCO)nc21` [CK-59]: in test [1], the AC50 cell viability stood at 26.3 µM. The efficacy in test [2] was -79.7%.

For the origin of these results see the supplement of paper PMC10290057.
